Experimental data: PubChem BioAssay AID1259407 (Chemical Carcinogenesis Research Information System (CCRIS), 2018)
Calls of active or inactive are those of the source. How the calls were made is not given here.

Tested on: CCRIS mutagenicity, Ames/micronucleus/aberration tests
Assay: CCRIS mutagenicity studies
[1] = Test System: AMES SALMONELLA TYPHIMURIUM, Strain/Indicator: TA100, Metabolic Activation: NONE, Method: PREINCUBATION
[2] = Test System: AMES SALMONELLA TYPHIMURIUM, Strain/Indicator: TA98, Metabolic Activation: NONE, Method: STANDARD PLATE
[3] = Test System: AMES SALMONELLA TYPHIMURIUM, Strain/Indicator: TA97, Metabolic Activation: HAMSTER, LIVER, S-9, AROCLOR 1254 (10%), Method: PREINCUBATION
[4] = Test System: AMES SALMONELLA TYPHIMURIUM, Strain/Indicator: TA97, Metabolic Activation: NONE, Method: PREINCUBATION
[5] = Test System: AMES SALMONELLA TYPHIMURIUM, Strain/Indicator: TA98, Metabolic Activation: NONE, Method: PREINCUBATION
[6] = Test System: AMES SALMONELLA TYPHIMURIUM, Strain/Indicator: TA1535, Metabolic Activation: NONE, Method: PREINCUBATION

CC(C)NCC(O)c1ccc2ccccc2c1 (stereo unspecified)
mutagenic call (Test System: AMES SALMONELLA TYPHIMURIUM, Strain/Indicator: TA98, Metabolic Activation: NONE): inactive; negative
mutagenic call (Test System: AMES SALMONELLA TYPHIMURIUM, Strain/Indicator: TA98, Metabolic Activation: RAT, LIVER, S-9, AROCLOR 1254): inactive; negative
mutagenic call (Test System: AMES SALMONELLA TYPHIMURIUM, Strain/Indicator: TA100, Metabolic Activation: NONE): inactive; negative
mutagenic call (Test System: AMES SALMONELLA TYPHIMURIUM, Strain/Indicator: TA100, Metabolic Activation: RAT, LIVER, S-9, AROCLOR 1254): inactive; negative
mutagenic call (Test System: AMES SALMONELLA TYPHIMURIUM, Strain/Indicator: TA1535, Metabolic Activation: NONE): inactive; negative
mutagenic call (Test System: AMES SALMONELLA TYPHIMURIUM, Strain/Indicator: TA1535, Metabolic Activation: RAT, LIVER, S-9, AROCLOR 1254): inactive; negative
mutagenic call (Test System: AMES SALMONELLA TYPHIMURIUM, Strain/Indicator: TA1537, Metabolic Activation: NONE): inactive; negative
mutagenic call (Test System: AMES SALMONELLA TYPHIMURIUM, Strain/Indicator: TA1537, Metabolic Activation: RAT, LIVER, S-9, AROCLOR 1254): inactive; negative

Nc1[nH]c(=O)nc2c1ncn2[C@H]1C[C@H](O)[C@@H](CO)O1
mutagenic call [1]: inactive; negative

COc1ccc2c(c1)[C@H]1CCCC[C@@H]1[C@@H]1O[C@H]21
mutagenic call [2]: inactive; negative
mutagenic call (Test System: AMES SALMONELLA TYPHIMURIUM, Strain/Indicator: TA100, Metabolic Activation: NONE, Method: STANDARD PLATE): inactive; negative

CC(C)C(C)(C)C(C)(C)C(C)(C)S
mutagenic call [3]: inactive; negative
mutagenic call (Test System: AMES SALMONELLA TYPHIMURIUM, Strain/Indicator: TA97, Metabolic Activation: HAMSTER, LIVER, S-9, AROCLOR 1254 (10 OR 30%), Method: PREINCUBATION): inactive; negative
mutagenic call (Test System: AMES SALMONELLA TYPHIMURIUM, Strain/Indicator: TA97, Metabolic Activation: HAMSTER, LIVER, S-9, AROCLOR 1254 (30%), Method: PREINCUBATION): inactive; negative
mutagenic call [4]: inactive; negative
mutagenic call (Test System: AMES SALMONELLA TYPHIMURIUM, Strain/Indicator: TA97, Metabolic Activation: RAT, LIVER, S-9, AROCLOR 1254 (10 OR 30%), Method: PREINCUBATION): inactive; negative
mutagenic call (Test System: AMES SALMONELLA TYPHIMURIUM, Strain/Indicator: TA98, Metabolic Activation: HAMSTER, LIVER, S-9, AROCLOR 1254 (10 OR 30%), Method: PREINCUBATION): inactive; negative
mutagenic call [5]: inactive; negative
mutagenic call (Test System: AMES SALMONELLA TYPHIMURIUM, Strain/Indicator: TA98, Metabolic Activation: RAT, LIVER, S-9, AROCLOR 1254 (10 OR 30%), Method: PREINCUBATION): inactive; negative
mutagenic call (Test System: AMES SALMONELLA TYPHIMURIUM, Strain/Indicator: TA100, Metabolic Activation: HAMSTER, LIVER, S-9, AROCLOR 1254 (10 OR 30%), Method: PREINCUBATION): inactive; negative
mutagenic call [1]: inactive; negative
mutagenic call (Test System: AMES SALMONELLA TYPHIMURIUM, Strain/Indicator: TA100, Metabolic Activation: RAT, LIVER, S-9, AROCLOR 1254 (10 OR 30%), Method: PREINCUBATION): inactive; negative
mutagenic call (Test System: AMES SALMONELLA TYPHIMURIUM, Strain/Indicator: TA1535, Metabolic Activation: HAMSTER, LIVER, S-9, AROCLOR 1254 (10 OR 30%), Method: PREINCUBATION): inactive; negative
mutagenic call [6]: inactive; negative
mutagenic call (Test System: AMES SALMONELLA TYPHIMURIUM, Strain/Indicator: TA1535, Metabolic Activation: RAT, LIVER, S-9, AROCLOR 1254 (10 OR 30%), Method: PREINCUBATION): inactive; negative

CC(=O)OC/C=C(C)/C=C/C=C(C)/C=C/C1=C(C)CCCC1(C)C
mutagenic call (Test System: AMES SALMONELLA TYPHIMURIUM, Strain/Indicator: TA97A, Metabolic Activation: NONE, Method: PREINCUBATION): inactive; negative
mutagenic call (Test System: AMES SALMONELLA TYPHIMURIUM, Strain/Indicator: TA97A, Metabolic Activation: RAT, LIVER, S-9, AROCLOR 1254, Method: PREINCUBATION): inactive; negative
mutagenic call (Test System: AMES SALMONELLA TYPHIMURIUM, Strain/Indicator: TA102, Metabolic Activation: NONE, Method: PREINCUBATION): inactive; negative
mutagenic call (Test System: AMES SALMONELLA TYPHIMURIUM, Strain/Indicator: TA102, Metabolic Activation: RAT, LIVER, S-9, AROCLOR 1254, Method: PREINCUBATION): inactive; negative

CC(=O)Nc1ccc(N=Nc2cc(C)ccc2O)cc1
mutagenic call (End Point: IN VITRO CHROMOSOMAL ABERRATIONS, Test System: CHO CELLS, Metabolic Activation: NONE): inactive; negative
mutagenic call (End Point: IN VITRO CHROMOSOMAL ABERRATIONS, Test System: CHO CELLS, Metabolic Activation: RAT, LIVER, S-9, AROCLOR 1254): inactive; negative
mutagenic call [3]: active; positive
mutagenic call [4]: active; positive
mutagenic call (Test System: AMES SALMONELLA TYPHIMURIUM, Strain/Indicator: TA97, Metabolic Activation: RAT, LIVER, S-9, AROCLOR 1254 (10%), Method: PREINCUBATION): active; positive
mutagenic call (Test System: AMES SALMONELLA TYPHIMURIUM, Strain/Indicator: TA98, Metabolic Activation: HAMSTER, LIVER, S-9, AROCLOR 1254 (5, 10, 20%), Method: PREINCUBATION): active; positive
mutagenic call (Test System: AMES SALMONELLA TYPHIMURIUM, Strain/Indicator: TA98, Metabolic Activation: HAMSTER, LIVER, S-9, AROCLOR 1254 (10%), Method: PREINCUBATION): active; positive
mutagenic call (Test System: AMES SALMONELLA TYPHIMURIUM, Strain/Indicator: TA98, Metabolic Activation: HAMSTER, LIVER, S-9, AROCLOR 1254, Method: STANDARD PLATE): active; positive
mutagenic call (Test System: AMES SALMONELLA TYPHIMURIUM, Strain/Indicator: TA98, Metabolic Activation: HAMSTER, LIVER, S-9, Method: PREINCUBATION (PRIVAL METHOD)): active; positive
mutagenic call [5]: active; positive
mutagenic call [2]: active; positive
mutagenic call (Test System: AMES SALMONELLA TYPHIMURIUM, Strain/Indicator: TA98, Metabolic Activation: RAT, LIVER, S-9, AROCLOR 1254 (10%), Method: PREINCUBATION): active; positive
mutagenic call (Test System: AMES SALMONELLA TYPHIMURIUM, Strain/Indicator: TA98, Metabolic Activation: RAT, LIVER, S-9, AROCLOR 1254, HAMSTER, LIVER, S-9, AROCLOR 1254, Method: STANDARD PLATE): active; positive
mutagenic call (Test System: AMES SALMONELLA TYPHIMURIUM, Strain/Indicator: TA100, Metabolic Activation: HAMSTER, LIVER, S-9, AROCLOR 1254 (10%), Method: PREINCUBATION): active; positive
mutagenic call (Test System: AMES SALMONELLA TYPHIMURIUM, Strain/Indicator: TA100, Metabolic Activation: HAMSTER, LIVER, S-9, AROCLOR 1254, Method: STANDARD PLATE): active; positive
mutagenic call (Test System: AMES SALMONELLA TYPHIMURIUM, Strain/Indicator: TA100, Metabolic Activation: HAMSTER, LIVER, S-9, Method: PREINCUBATION (PRIVAL METHOD)): active; positive
mutagenic call [1]: active; positive
mutagenic call (Test System: AMES SALMONELLA TYPHIMURIUM, Strain/Indicator: TA100, Metabolic Activation: RAT, LIVER, S-9, AROCLOR 1254 (10%), Method: PREINCUBATION): active; positive
mutagenic call (Test System: AMES SALMONELLA TYPHIMURIUM, Strain/Indicator: TA1535, Metabolic Activation: HAMSTER, LIVER, S-9, AROCLOR 1254 (10%), Method: PREINCUBATION): inactive; negative
mutagenic call [6]: inactive; negative
mutagenic call (Test System: AMES SALMONELLA TYPHIMURIUM, Strain/Indicator: TA1535, Metabolic Activation: RAT, LIVER, S-9, AROCLOR 1254 (10%), Method: PREINCUBATION): inactive; negative
mutagenic call (Test System: AMES SALMONELLA TYPHIMURIUM, Strain/Indicator: TA1537, Metabolic Activation: NONE, Method: STANDARD PLATE): active; positive
mutagenic call (Test System: AMES SALMONELLA TYPHIMURIUM, Strain/Indicator: TA1537, Metabolic Activation: RAT, LIVER, S-9, AROCLOR 1254, HAMSTER, LIVER, S-9, AROCLOR 1254, Method: STANDARD PLATE): active; positive
mutagenic call (Test System: AMES SALMONELLA TYPHIMURIUM, Strain/Indicator: TA1538, Metabolic Activation: NONE, Method: STANDARD PLATE): active; positive
mutagenic call (Test System: AMES SALMONELLA TYPHIMURIUM, Strain/Indicator: TA1538, Metabolic Activation: RAT, LIVER, S-9, AROCLOR 1254, HAMSTER, LIVER, S-9, AROCLOR 1254, Method: STANDARD PLATE): active; positive
mutagenic call (Test System: Mouse lymphoma, Strain/Indicator: L5178Y (tk+/tk-), Metabolic Activation: None, Method: Suspension/Plate): inactive; negative
mutagenic call (Test System: Mouse lymphoma, Strain/Indicator: L5178Y (tk+/tk-), Metabolic Activation: Rat, Liver, S-9, Aroclor 1254, Method: Suspension/Plate): inactive; inconclusive (previous evaluation negative)
